In ChEMBL document CHEMBL1240385, “Detection of KPC in Acinetobacter spp. in Puerto Rico” (2010):
Converted amounts (≈) assume the structure as drawn.

Assays:
Assay type in all cases: functional
[1] = (§1) Antibacterial activity against Acinetobacter calcoaceticus/baumannii complex isolate W2AC8-S10 expressing OXA-51
[2] = test system: Acinetobacter calcoaceticus/baumannii complex; test: (§2) Antibacterial activity against Acinetobacter calcoaceticus/baumannii complex isolate N2AC9-19 expressing KPC beta lactamase
[3] = test system: Acinetobacter calcoaceticus/baumannii complex; test: (§3) Antibacterial activity against Acinetobacter calcoaceticus/baumannii complex isolate N2AC9-18 expressing KPC beta lactamase
[4] = test system: Acinetobacter calcoaceticus/baumannii complex; test: (§4) Antibacterial activity against Acinetobacter calcoaceticus/baumannii complex isolate M3AC9-6 expressing KPC beta lactamase
[5] = test system: Pseudomonas aeruginosa; test: Antibacterial activity against Pseudomonas aeruginosa ATCC 27853 […]
[6] = test system: Escherichia coli; test: Antibacterial activity against Escherichia coli ATCC 25922 […]
[7] = test system: Acinetobacter calcoaceticus/baumannii complex; test: (§5) Antibacterial activity against Acinetobacter calcoaceticus/baumannii complex isolate M3AC9-2 expressing KPC beta lactamase
[8] = test system: Acinetobacter calcoaceticus/baumannii complex; test: as §1
[9] = test system: Acinetobacter calcoaceticus/baumannii complex; test: (§6) Antibacterial activity against Acinetobacter calcoaceticus/baumannii complex isolate C1AC9-24 expressing KPC beta lactamase
[10] = test system: Acinetobacter calcoaceticus/baumannii complex; test: (§7) Antibacterial activity against Acinetobacter calcoaceticus/baumannii complex isolate MC1AC9-26 expressing KPC beta lactamase
[11] = test system: Acinetobacter calcoaceticus/baumannii complex; test: (§8) Antibacterial activity against Acinetobacter calcoaceticus/baumannii complex isolate MC4AC9-30 expressing KPC beta lactamase
[12] = test system: Acinetobacter calcoaceticus/baumannii complex; test: (§9) Antibacterial activity against Acinetobacter calcoaceticus/baumannii complex isolate M2AC9-31 expressing KPC beta lactamase
[13] = test system: Acinetobacter calcoaceticus/baumannii complex; test: (§10) Antibacterial activity against Acinetobacter calcoaceticus/baumannii complex isolate M3AC9-4 expressing KPC beta lactamase
[14] = test system: Acinetobacter calcoaceticus/baumannii complex; test: (§11) Antibacterial activity against Acinetobacter calcoaceticus/baumannii complex isolate M3AC9-7 expressing KPC beta lactamase
[15] = as §2
[16] = as §3
[17] = as §4
[18] = as §5
[19] = as §6
[20] = as §7
[21] = as §8
[22] = as §9
[23] = as §10
[24] = as §11

Molecule	MIC [1] [µg/mL]	MIC [5] [µg/mL]	MIC [6] [µg/mL]	MIC [15] [µg/mL]	MIC [16] [µg/mL]	MIC [17] [µg/mL]	MIC [18] [µg/mL]	MIC [19] [µg/mL]	MIC [20] [µg/mL]	MIC [21] [µg/mL]	MIC [22] [µg/mL]	MIC [23] [µg/mL]	MIC [24] [µg/mL]	also measured
O=C(O)c1cn(C2CC2)c2cc(N3CCNCC3)c(F)cc2c1=O [CIPROFLOXACIN]	0.25 (≈ 0.754 µM)													
GENTAMICIN		< 1	1											MIC [2]: > 8 µg/mL; MIC [3]: > 8 µg/mL; MIC [4]: 2 µg/mL; MIC [7]: 2 µg/mL; MIC [8]: 1 µg/mL; MIC [9]: > 8 µg/mL; MIC [10]: 8 µg/mL; MIC [11]: > 8 µg/mL; MIC [12]: > 8 µg/mL; MIC [13]: > 8 µg/mL; MIC [14]: < 1 µg/mL
C[C@@H](O)[C@H]1C(=O)N2C(C(=O)O)=C(S[C@@H]3CN[C@H](CNS(N)(=O)=O)C3)[C@H](C)[C@H]12 [DORIPENEM]	0.12 (≈ 0.285 µM)	0.5 (≈ 1.19 µM)	0.12 (≈ 0.285 µM)	> 2	> 2	> 2	> 2	> 2	> 2	> 2	> 2	> 2	> 2	
POLYMYXIN B		1	0.25											MIC [2]: < 0.25 µg/mL; MIC [3]: < 0.25 µg/mL; MIC [4]: 0.5 µg/mL; MIC [7]: < 0.25 µg/mL; MIC [8]: 0.5 µg/mL; MIC [9]: 0.5 µg/mL; MIC [10]: < 0.25 µg/mL; MIC [11]: 0.5 µg/mL; MIC [12]: < 0.25 µg/mL; MIC [13]: < 0.25 µg/mL; MIC [14]: 0.5 µg/mL
CO/N=C(\C(=O)N[C@@H]1C(=O)N2C(C(=O)O)=C(COC(C)=O)CS[C@H]12)c1csc(N)n1 [CEFOTAXIME]	4 (≈ 8.78 µM)	16 (≈ 35.1 µM)	1 (≈ 2.2 µM)	> 32	> 32	> 32	> 32	> 32	> 32	> 32	> 32	> 32	> 32	
CC(C)(O/N=C(\C(=O)N[C@@H]1C(=O)N2C(C(=O)[O-])=C(C[n+]3ccccc3)CS[C@H]12)c1csc(N)n1)C(=O)O [CEFTAZIDIME]	2 (≈ 3.66 µM)	2 (≈ 3.66 µM)	1 (≈ 1.83 µM)	> 16	> 16	> 16	> 16	> 16	> 16	> 16	> 16	> 16	> 16	
NCC[C@H](O)C(=O)N[C@@H]1C[C@H](N)[C@@H](O[C@H]2O[C@H](CN)[C@@H](O)[C@H](O)[C@H]2O)[C@H](O)[C@H]1O[C@H]1O[C@H](CO)[C@@H](O)[C@H](N)[C@H]1O [AMIKACIN]	4 (≈ 6.83 µM)	< 4	4 (≈ 6.83 µM)	> 32	> 32	> 32	> 32	> 32	> 32	> 32	> 32	> 32	> 32	
C[C@@H](O)[C@H]1C(=O)N2C(C(=O)O)=C(S[C@@H]3CN[C@H](C(=O)N(C)C)C3)[C@H](C)[C@H]12 [MEROPENEM]	1 (≈ 2.61 µM)	< 1	1 (≈ 2.61 µM)	> 8	> 8	> 8	> 8	4 (≈ 10.4 µM)	> 8	> 8	> 8	> 8	> 8	
COLISTIN		1	0.25											MIC [2]: 0.5 µg/mL; MIC [3]: 0.5 µg/mL; MIC [4]: 1 µg/mL; MIC [7]: 0.5 µg/mL; MIC [8]: 0.25 µg/mL; MIC [9]: 1 µg/mL; MIC [10]: 0.5 µg/mL; MIC [11]: 0.5 µg/mL; MIC [12]: 0.5 µg/mL; MIC [13]: 1 µg/mL; MIC [14]: 1 µg/mL
C[C@H]1COc2c(N3CCN(C)CC3)c(F)cc3c(=O)c(C(=O)O)cn1c23.C[C@H]1COc2c(N3CCN(C)CC3)c(F)cc3c(=O)c(C(=O)O)cn1c23.O [LEVOFLOXACIN]	1	< 1		> 8	> 8	> 8	> 8	> 8	> 8	> 8	> 8	> 8	> 8	
CO/N=C(\C(=O)N[C@@H]1C(=O)N2C(C(=O)[O-])=C(C[N+]3(C)CCCC3)CS[C@H]12)c1csc(N)n1	2 (≈ 4.16 µM)	< 2	2 (≈ 4.16 µM)	> 16	> 16	> 16	> 16	> 16	> 16	> 16	> 16	> 16	> 16	
CN(C)c1cc(NC(=O)CNC(C)(C)C)c(O)c2c1C[C@H]1C[C@H]3[C@H](N(C)C)C(O)=C(C(N)=O)C(=O)[C@@]3(O)C(O)=C1C2=O [TIGECYCLINE]	< 0.25	8 (≈ 13.7 µM)	0.25 (≈ 0.427 µM)	2 (≈ 3.41 µM)	1 (≈ 1.71 µM)	0.5 (≈ 0.854 µM)	0.5 (≈ 0.854 µM)	1 (≈ 1.71 µM)	2 (≈ 3.41 µM)	0.5 (≈ 0.854 µM)	1 (≈ 1.71 µM)	0.25 (≈ 0.427 µM)	0.5 (≈ 0.854 µM)	
C[C@@H](O)[C@H]1C(=O)N2C(C(=O)O)=C(SCCNC=N)C[C@H]12 [IMIPENEM ANHYDROUS]	1 (≈ 3.34 µM)	2 (≈ 6.68 µM)	1 (≈ 3.34 µM)	> 8	> 8	> 8	> 8	4 (≈ 13.4 µM)	8 (≈ 26.7 µM)	8 (≈ 26.7 µM)	8 (≈ 26.7 µM)	> 8	> 8	
CN(C)c1ccc(O)c2c1C[C@H]1C[C@H]3[C@H](N(C)C)C(O)=C(C(N)=O)C(=O)[C@@]3(O)C(O)=C1C2=O [MINOCYCLINE]	2 (≈ 4.37 µM)	16 (≈ 35 µM)	2 (≈ 4.37 µM)	< 2	< 2	< 2	< 2	8 (≈ 17.5 µM)	< 2	4 (≈ 8.74 µM)	< 2	4 (≈ 8.74 µM)	< 2	
